Measured values as given in ChEMBL document CHEMBL1159257, “Methyl ethers of podophyllotoxin-related cyclolignans” (J Nat Prod, 1995).

Assays:
Assay type in all cases: functional, cell-based
[1] = tested on: A549; test: Cytotoxicity against human A549 cells
[2] = tested on: HT-29; test: Cytotoxicity against human HT-29 cells
[3] = tested on: P388; test: Cytotoxicity against mouse P388 cells

Q: How did the IC50 [1] turn out when `COc1cc([C@@H]2c3cc4c(cc3[C@H](O)[C@H]3COC(=O)[C@@H]23)OCO4)cc(OC)c1OC` [AXL-1717] was run?
A: 6 µM

Q: And the IC50 [2]?
A: 6 µM

Q: What about the IC50 [3] of the same molecule?
A: 6 µM

Q: Which results are given for `COc1cc([C@@H]2c3cc4c(cc3[C@H](OC)[C@@H](COC(C)=O)[C@H]2COC(C)=O)OCO4)cc(OC)c1OC`?
A: IC50 [1]: > 38.8 µM; IC50 [2]: 19.4 µM; IC50 [3]: 19.4 µM

Q: With `COc1cc([C@@H]2c3cc4c(cc3[C@@H](Cl)[C@H]3COC(=O)[C@H]23)OCO4)cc(OC)c1OC` as the molecule, how does the IC50 [1] read?
A: 0.6 µM

Q: And the IC50 [2]?
A: 1.2 µM

Q: What about the IC50 [3] of the same molecule?
A: 0.6 µM

Q: What does the source list for `COc1cc([C@@H]2c3cc4c(cc3[C@@H](O)[C@H]3COC(=O)[C@H]23)OCO4)cc(OC)c1OC` [EPIPODOPHYLLOTOXIN]?
A: IC50 [1]: 0.06 µM; IC50 [2]: 0.06 µM; IC50 [3]: 0.06 µM

Q: Which IC50 [1] does the source give for `COc1cc([C@@H]2c3cc4c(cc3[C@H](OC)[C@@H](COC(C)=O)[C@@H]2COC(C)=O)OCO4)cc(OC)c1OC` here?
A: 9.7 µM

Q: And the IC50 [2]?
A: 9.7 µM

Q: What about the IC50 [3] of the same molecule?
A: 9.7 µM

Q: For `COc1cc([C@@H]2c3cc4c(cc3[C@@H](OC)[C@H]3COC(=O)[C@@H]23)OCO4)cc(OC)c1OC`, which IC50 [1] is on record?
A: 0.13 µM

Q: And the IC50 [2]?
A: 0.06 µM

Q: And the IC50 [3]?
A: 0.1 µM

Q: `COc1cc([C@@H]2c3cc4c(cc3[C@@H](OC)[C@@H](CO)[C@@H]2CO)OCO4)cc(OC)c1OC` was tested. Which IC50 [1] did it give?
A: 11.6 µM

Q: And the IC50 [2]?
A: 11.6 µM

Q: What about the IC50 [3] of the same molecule?
A: 11.6 µM

Q: What does the source list for `COc1cc([C@@H]2c3cc4c(cc3[C@@H](OC)[C@@H](CO)[C@H]2CO)OCO4)cc(OC)c1OC`?
A: IC50 [1]: 11.6 µM; IC50 [2]: 11.6 µM; IC50 [3]: 11.6 µM

Q: Which IC50 [1] does the source give for `COc1cc([C@@H]2c3cc4c(cc3C=C3COC(=O)[C@H]32)OCO4)cc(OC)c1OC` here?
A: 0.025 µM

Q: And the IC50 [2]?
A: 0.025 µM

Q: And the IC50 [3]?
A: 0.013 µM

Q: Which IC50 [1] does the source give for `COc1cc([C@@H]2c3cc4c(cc3[C@H](OC)[C@H]3COC(=O)[C@@H]23)OCO4)cc(OC)c1OC` here?
A: 0.12 µM

Q: What about the IC50 [2] of the same molecule?
A: 0.23 µM

Q: And the IC50 [3]?
A: 0.12 µM

Q: Which IC50 [2] does the source give for `COc1cc([C@@H]2c3cc4c(cc3[C@H](O)[C@H]3COC(=O)[C@H]23)OCO4)cc(OC)c1OC` [PODOFILOX] here?
A: 0.0029 µM

Q: For `COc1cc([C@@H]2c3cc4c(cc3[C@H](OC)[C@H]3COC(=O)[C@H]23)OCO4)cc(OC)c1OC`, which IC50 [1] is on record?
A: 0.06 µM

Q: What about the IC50 [2] of the same molecule?
A: 0.06 µM

Q: What about the IC50 [3] of the same molecule?
A: 0.06 µM

Q: For `COc1cc([C@@H]2c3cc4c(cc3[C@@H](OC)[C@@H](COC(C)=O)[C@@H]2COC(C)=O)OCO4)cc(OC)c1OC`, which IC50 [1] is on record?
A: 9.7 µM

Q: What about the IC50 [2] of the same molecule?
A: 9.7 µM

Q: What about the IC50 [3] of the same molecule?
A: 9.7 µM

Q: Which results are given for `COc1cc([C@@H]2c3cc4c(cc3[C@@H](OC)[C@H]3COC(=O)[C@H]23)OCO4)cc(OC)c1OC`?
A: IC50 [1]: 0.06 µM; IC50 [2]: 1.2 µM; IC50 [3]: 0.06 µM

Q: With `COc1cc([C@@H]2c3cc4c(cc3[C@H](OC)[C@@H](CO)[C@H]2CO)OCO4)cc(OC)c1OC` as the molecule, how does the IC50 [1] read?
A: 46.3 µM

Q: And the IC50 [2]?
A: 23.2 µM

Q: And the IC50 [3]?
A: 23.2 µM

Q: Which IC50 [1] does the source give for `COc1cc([C@@H]2c3cc4c(cc3[C@@H](OC)[C@@H](COC(C)=O)[C@H]2COC(C)=O)OCO4)cc(OC)c1OC` here?
A: 9.7 µM

Q: What about the IC50 [2] of the same molecule?
A: 9.7 µM

Q: What about the IC50 [3] of the same molecule?
A: 9.7 µM
